From BindingDB's records for patent WO2023001061 (Jingrui Biopharma, 2023)

Each compound was assayed against CDK-activating kinase assembly factor MAT1/Cyclin-H/Cyclin-dependent kinase 7 (Homo sapiens, UniProt P50613) (assay: In Vitro Kinase assay (CDK7) and IC 50 determination).
Description: The kinase assay was carried out by Sundia MediTech Co., Ltd.

Sequence of CDK-activating kinase assembly factor MAT1/Cyclin-H/Cyclin-dependent kinase 7 (P51946 whole entry): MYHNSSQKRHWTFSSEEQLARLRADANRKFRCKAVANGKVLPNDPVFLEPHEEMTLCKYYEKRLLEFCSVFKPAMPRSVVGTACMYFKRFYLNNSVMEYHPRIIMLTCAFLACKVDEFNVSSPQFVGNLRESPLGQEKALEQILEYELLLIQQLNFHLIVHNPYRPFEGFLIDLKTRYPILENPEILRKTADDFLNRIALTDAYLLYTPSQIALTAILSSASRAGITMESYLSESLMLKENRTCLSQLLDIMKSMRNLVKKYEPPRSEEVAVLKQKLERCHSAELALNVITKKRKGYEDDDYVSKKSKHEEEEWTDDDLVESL
Sequence of CDK-activating kinase assembly factor MAT1/Cyclin-H/Cyclin-dependent kinase 7 (P50613 whole entry): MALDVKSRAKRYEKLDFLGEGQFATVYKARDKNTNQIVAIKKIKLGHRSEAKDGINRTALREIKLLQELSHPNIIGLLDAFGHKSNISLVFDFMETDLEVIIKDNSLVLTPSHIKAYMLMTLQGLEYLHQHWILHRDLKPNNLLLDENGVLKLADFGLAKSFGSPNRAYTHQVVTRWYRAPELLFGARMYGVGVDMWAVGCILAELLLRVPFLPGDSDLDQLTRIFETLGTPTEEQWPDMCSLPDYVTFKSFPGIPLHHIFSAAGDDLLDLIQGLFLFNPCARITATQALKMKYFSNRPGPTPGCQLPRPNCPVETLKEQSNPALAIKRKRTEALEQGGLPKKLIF
Sequence of CDK-activating kinase assembly factor MAT1/Cyclin-H/Cyclin-dependent kinase 7 (P51948 whole entry, further chain): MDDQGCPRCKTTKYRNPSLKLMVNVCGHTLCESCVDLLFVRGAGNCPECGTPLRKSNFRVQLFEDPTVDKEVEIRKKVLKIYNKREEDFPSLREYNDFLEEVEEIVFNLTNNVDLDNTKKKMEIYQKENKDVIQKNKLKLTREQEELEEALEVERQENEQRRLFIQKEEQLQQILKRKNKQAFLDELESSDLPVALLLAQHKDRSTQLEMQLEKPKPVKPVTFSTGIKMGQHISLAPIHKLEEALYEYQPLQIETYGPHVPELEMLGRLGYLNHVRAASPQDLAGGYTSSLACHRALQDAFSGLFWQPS

`CC(C)c1cnn2c(NCc3ccccc3N(C)C)cc(OC3CCN(C)CC3)nc12` [WO2023001061, Example 1] and `CC(C)c1cnn2c(NCc3ccnn3C)cc(OC3CCN(C)CC3)nc12` [WO2023001061, Example 7] cannot be ordered by IC50: under 50 nM for the first, under 50 nM for the second.

`CC(C)c1cnn2c(NCC3CCCN3C)cc(NC[C@H]3CCNC[C@@H]3O)nc12` (stereo not given in full) [WO2023001061, Example 2] and `CC(C)c1cnn2c(NCc3ccnn3C)cc(NC[C@H]3CCNC[C@@H]3O)nc12` [WO2023001061, Example 6] cannot be ordered by IC50: under 50 nM for the first, under 50 nM for the second.

`CC(C)c1cnn2c(NCc3nc4cc(N(C)C)ccc4s3)cc(NC[C@H]3CCNC[C@@H]3O)nc12` [WO2023001061, Example 4] and `CC(C)c1cnn2c(NCc3nc4cc(Cl)ccc4s3)cc(NC[C@H]3CCNC[C@@H]3O)nc12` [WO2023001061, Example 39] cannot be ordered by IC50: under 50 nM for the first, under 50 nM for the second.

`CC(C)c1cnn2c(NCc3ccc4cccc(N(C)C)c4n3)cc(NC[C@H]3CCNC[C@@H]3O)nc12` [WO2023001061, Example 5] and `CC(C)c1cnn2c(NCc3cccnc3N(C)C)cc(NC[C@H]3CCNC[C@@H]3O)nc12` [WO2023001061, Example 15] cannot be ordered by IC50: under 50 nM for the first, under 50 nM for the second.

`CC(C)c1cnn2c(NCC3CCCN3C)cc(OC3CCN(C)CC3)nc12` (stereo not given) [WO2023001061, Example 8] and `CC(C)c1cnn2c(NCC3CCCN3C)nc(OC3CCN(C)CC3)nc12` (stereo not given) [WO2023001061, Example 23] cannot be ordered by IC50: under 500 nM for the first, under 500 nM for the second.

`CC(C)c1cnn2c(NCc3ccn[nH]3)cc(NC[C@H]3CCNC[C@@H]3O)nc12` [WO2023001061, Example 9] and `CC(C)c1cnn2c(NCc3nccs3)cc(NC[C@H]3CCNC[C@@H]3O)nc12` [WO2023001061, Example 31] cannot be ordered by IC50: under 50 nM for the first, under 50 nM for the second.

`CC(C)c1cnn2c(NCc3ccnn3C(C)C)cc(NC[C@H]3CCNC[C@@H]3O)nc12` [WO2023001061, Example 10] and `CC(C)c1cnn2c(NCc3ccnn3C3CC3)cc(NC[C@H]3CCNC[C@@H]3O)nc12` [WO2023001061, Example 11] cannot be ordered by IC50: under 50 nM for the first, under 50 nM for the second.

`CC(C)c1cnn2c(NCc3cncn3C)cc(NC[C@H]3CCNC[C@@H]3O)nc12` [WO2023001061, Example 13] and `CC(C)c1cnn2c(NCc3nccn3C)cc(NC[C@H]3CCNC[C@@H]3O)nc12` [WO2023001061, Example 14] cannot be ordered by IC50: under 50 nM for the first, under 50 nM for the second.

`CC(C)c1cnn2c(NCc3ccnn3C)nc(OC3CCN(C)CC3)nc12` [WO2023001061, Example 26] and `Cc1cc(CNc2nc(OC3CCN(C)CC3)nc3c(C(C)C)cnn23)n(C2CC2)n1` [WO2023001061, Example 28] cannot be ordered by IC50: under 50 nM for the first, under 50 nM for the second.

`CC(C)c1cnn2c(NCc3ccc4cccc(N(C)C)c4n3)nc(OC3CCN(C)CC3)nc12` [WO2023001061, Example 27] and `CC(C)c1cnn2c(NCc3nn(C)c4ccccc34)cc(NC[C@H]3CCNC[C@@H]3O)nc12` [WO2023001061, Example 35] cannot be ordered by IC50: under 50 nM for the first, under 50 nM for the second.

`CC(C)c1cnn2c(NCc3ccn(C)n3)cc(NC[C@H]3CCNC[C@@H]3O)nc12` [WO2023001061, Example 29] and `CC(C)c1cnn2c(NCc3nc4ccccc4n3C)cc(NC[C@H]3CCNC[C@@H]3O)nc12` [WO2023001061, Example 36] cannot be ordered by IC50: under 50 nM for the first, under 50 nM for the second.

`CC(C)c1cnn2c(NCc3nc4ccccc4s3)cc(NC[C@H]3CCNC[C@@H]3O)nc12` [WO2023001061, Example 30] and `CC(C)c1cnn2c(NCc3nc4cc(C(F)(F)F)ccc4s3)cc(NC[C@H]3CCNC[C@@H]3O)nc12` [WO2023001061, Example 38] cannot be ordered by IC50: under 50 nM for the first, under 50 nM for the second.

`CC(C)c1cnn2c(NCc3nc(C4CC4)cs3)cc(NC[C@H]3CCNC[C@@H]3O)nc12` [WO2023001061, Example 48] gave an IC50 of under 50 nM.
